The values that follow come from patent US20230219951A1, “PYRIDINE-PYRIMIDINE DERIVATIVE, PREPARATION METHOD THEREFOR AND PHARMACEUTICAL USE THEREOF” (Jiangsu Hengrui Pharmaceuticals Co., Ltd., priority 2020, published 2023).

What is called IC50 is the point on the concentration scale where inhibition reaches its midpoint.

Each structure is given as a SMILES string.

Test [1] has as its target T1, interaction between the KRAS protein subtype G12D and the SOS1 protein (Homo sapiens, UniProt Q07889).
T1 construct: GST-TEV-SOS1(564-1049) (Viva Biotech, SOS1-191010); purchased SOS1: Viva Biotech; KRAS: Shanghai Panchao Biotechnology Co., Ltd. SOS1-191010
T1 sequence (Q07889 564-1049): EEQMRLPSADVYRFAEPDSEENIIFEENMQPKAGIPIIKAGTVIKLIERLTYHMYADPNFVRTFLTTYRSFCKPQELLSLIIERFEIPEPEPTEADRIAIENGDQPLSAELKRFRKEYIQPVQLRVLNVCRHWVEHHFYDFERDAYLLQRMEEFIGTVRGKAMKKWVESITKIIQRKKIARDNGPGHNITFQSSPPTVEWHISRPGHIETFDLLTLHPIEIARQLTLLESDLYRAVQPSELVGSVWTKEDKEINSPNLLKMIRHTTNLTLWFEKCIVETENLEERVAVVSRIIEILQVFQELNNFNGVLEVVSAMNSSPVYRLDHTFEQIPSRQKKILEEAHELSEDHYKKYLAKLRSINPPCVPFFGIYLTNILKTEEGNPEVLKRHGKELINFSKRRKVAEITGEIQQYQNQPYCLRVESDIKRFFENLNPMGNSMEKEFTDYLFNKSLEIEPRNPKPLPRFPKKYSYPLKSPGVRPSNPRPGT
In words: Inhibition of the interaction between KRAS G12D and SOS1 protein (AlphaLISA/AlphaScreen). It is filed as binding. Conditions: KRAS G12D + GST-TEV-SOS1(564-1049) + GDP. How it is done:
(§1) Test Example 1: Inhibitory Ability of Compounds of the Present Disclosure to the Interaction Between the KRAS Protein Subtype G12D or G12V and the SOS1 Protein. The inhibitory ability of the compounds of the present disclosure to the interaction between the KRAS protein subtype G12D or G12V and the SOS1 protein was determined by the following method. The experimental method was briefly described as follows:
(§2) 1. The experimental buffer was prepared prior to the start of the experiment: 1×PBS+0.1% BSA+0.05% tween 20.
(§3) 2. KRAS G12D and KRAS-G12V proteins were labeled with biotin using the biotin labeling kit.
(§4) 1. Firstly, the biotin-labeled KRAS G12D or KRAS G12V protein was mixed and incubated with the SOS1 protein and GDP for later use.
(§5) 2. AlphaLISA glutathione acceptor beads and AlphaScreen streptavidin donor beads were mixed at a ratio of 1:1 to make the concentration of 40 μg/mL for later use.
(§6) 3. The compound was formulated with the experimental buffer to obtain 10 concentration points by 5-fold gradient dilution from an initial concentration of 40 μM.
(§7) 4. In the 384-well microplate, 10 μL of a mixture of KRAS G12D or KRAS G12V protein and SOS1 and GDP and 5 μL of the diluted compound were added to each well and incubated at room temperature for 30 min away from the light.
(§8) 5. Then, 5 μL of a mixture of AlphaLISA glutathione acceptor beads and AlphaScreen streptavidin donor beads was added to each well and incubated at room temperature for 60 min away from the light.
(§9) 6. The fluorescence values were read on a multi-mode microplate reader.
(§10) 7. IC50 values of the compounds were calculated using Graphpad Prism.
In general terms: Alpha assays give light when donor and acceptor beads are brought close together.

In test [2] the target is T2, interaction between the KRAS protein subtype G12V and the SOS1 protein (Homo sapiens, UniProt Q07889).
T2 construct: GST-TEV-SOS1(564-1049) (Viva Biotech, SOS1-191010); purchased SOS1: Viva Biotech; KRAS: Shanghai Panchao Biotechnology Co., Ltd. SOS1-191010
T2 sequence (Q07889 564-1049): T1 sequence (Q07889 564-1049)
Description: Inhibition of the interaction between KRAS G12V and SOS1 protein (AlphaLISA/AlphaScreen). Type of test: binding. Conditions: KRAS G12V + GST-TEV-SOS1(564-1049) + GDP. The procedure: as §1, §2, §3, §4, §5, §6, §7, §8, §9, §10

For test [3], the system named is ERK phosphorylation of H358 cells. Description: Inhibition of ERK phosphorylation of H358 cells (HTRF pERK/total ERK). Type of test: cell-based. The following applies: Homo sapiens, NCI-H358, 1 h incubation, pERK/total ERK ratio. How it is done: This experiment is intended to evaluate the inhibition effect of the compounds of the present disclosure on the KRAS target (containing the G12C mutation) according to IC50 by determining the inhibition effect of the compounds on ERK phosphorylation of the cells.
H358 cells (ATCC, CRL-5807) were cultured in RPMI1640 (Hyclone, SH30809.01) complete medium containing 10% fetal bovine serum. On the first day of the experiment, the H358 cells were seeded into a 96-well plate at a density of 25,000 cells/well with a complete medium to form 190 μL of cell suspension per well. The plate was incubated overnight in a cell incubator at 37° C. with 5% CO2. The next day, 10 μL of test compound diluted in a gradient prepared with the complete medium was added to each well. The final concentrations of the compound were 9 concentration points obtained by 5-fold gradient dilution from 10 μM. A blank control containing 0.1% DMSO was set. The plate was incubated in a cell incubator at 37° C. with 5% CO2 for 1 h. 1 h later, the 96-well cell culture plate was taken out, the medium was removed by pipetting, 200 μL PBS (Shanghai BasalMedia Technologies Co., Ltd., B320) was added to each well, and the cells were washed once. PBS was removed by pipetting, 50 μL of lysis buffer (Cisbio, 64KL1FDF) containing a blocking reagent (Cisbio, 64KB1AAC) was added to each well, and the plate was shaken on a shaker at room temperature for 40 min for lysis. After lysis, the lysate was pipetted and mixed well, 16 μL of lysate was transferred from each well to each of two HTRF 96-well assay plates (Cisbio, 66PL96100), and then 4 μL of premixed phospho-ERK1/2 antibody solution (Cisbio, 64AERPEG) or 4 μL of premixed total-ERK1/2 antibody solution (Cisbio, 64NRKPEG) was added to each of the two plates. The microplate was sealed with a sealing membrane, centrifuged for 1 min in a microplate centrifuge, and incubated overnight at room temperature away from the light. On the third day, the fluorescence values at an excitation wavelength of 337 nm and at emission wavelengths of 665 nm and 620 nm were read using a PHERAstar multi-mode microplate reader (BMG Labtech, S/N 471-0361).
IC50 values for inhibitory activity of the compounds were calculated using Graphpad Prism software based on compound concentrations and pERK/total ERK ratio.
(In general: In TR-FRET formats the signal depends on donor and acceptor labels being close together.)

The subject of the next test is H358 cells. In words: Inhibition of proliferation of H358 cells (CellTiter-Glo 3D). It is filed as cell-based. The following applies: Homo sapiens, NCI-H358, low adsorption plate, 120 h. The procedure:
This example is intended to evaluate the inhibition effect of the compounds of the present disclosure on the KRAS target (containing the G12C mutation) by testing the inhibition effect of the compounds of the present disclosure on the proliferation of H358 cells.
H358 cells (ATCC, CRL-5807) were cultured in a complete medium, namely RPMI1640 medium (Hyclone, SH30809.01) containing 10% fetal bovine serum (Corning, 35-076-CV). On the first day of the experiment, the H358 cells were seeded into a 96-well low adsorption plate (Coming, CLS7007-24EA) at a density of 1500 cells/well with a complete medium to form 90 μL of cell suspension per well. The plate was centrifuged at 2000 rpm for 5 min at room temperature and then incubated overnight in a cell incubator at 37° C. with 5% CO2. The next day, 10 μL of test compound diluted in a gradient prepared with the complete medium was added to each well. The final concentrations of the compound were 9 concentration points obtained by 5-fold gradient dilution from 10 μM. A blank control containing 0.1% DMSO was set. The plate was incubated in a cell incubator at 37° C. with 5% CO2 for 120 h. On the seventh day, the 96-well cell culture plate was taken out and 50 μL of CellTiter-Glo® 3D reagent (Promega, G9682) was added into each well. The plate was shaken at room temperature for 25 min, pipetted and mixed well, from which 50 μL of the mixture was transferred into a white impermeable 96-well plate (PE, 6005290). The luminescence signal values were read using a multi-mode microplate reader (PerkinElmer, VICTOR 3).
IC50 values for the inhibitory activity of the compounds were calculated using Graphpad Prism software.
A general note: Cellular ATP, detected with luciferase, serves as a proxy for viable cell number.

With `Cc1nc(N[C@H](C)c2cccc(C(F)F)c2F)c2cc(C3(O)CCN(C(=O)CC#N)CC3)c(=O)[nH]c2n1` [Example 21, (R)-3-(4-(4-((1-(3-(difluoromethyl)-2-fluorophenyl)ethyl)amino)-2-methyl-7-oxo-7,8-dihydropyrido[2,3-d]pyrimidin-6-yl)-4-hydroxypiperidin-1-yl)-3-oxopropanenitrile], the concentration for half-maximal inhibition (IC50) in test [1] amounted to 15 nM; in test [2] it was 54 nM; in test [3], 87 nM; in the test on H358 cells, 62 nM.

`Cc1nc(N[C@H](C)c2cccc(C(F)F)c2F)c2cc([C@]3(O)CC[C@H](O)CC3)c(=O)[nH]c2n1` [Example 18-p2, 4-(((R)-1-(3-(difluoromethyl)-2-fluorophenyl)ethyl)amino)-6-((1r,4R)-1,4-dihydroxycyclohexyl)-2-methylpyrido[2,3-d]pyrimidin-7(8H)-one]: the IC50 is 40 nM in test [1], 112 nM in test [2], 222 nM in test [3] and 213 nM with H358 cells.

Turning to `Cc1nc(N[C@H](C)c2cccc(C(F)F)c2F)c2cc([C@]3(O)CC[C@H](O)CC3)c(=O)n(C)c2n1` [Example 28-p2, 4-(((R)-1-(3-(difluoromethyl)-2-fluorophenyl)ethyl)amino)-6-((1r,4R)-1,4-dihydroxycyclohexyl)-2,8-dimethylpyrido[2,3-d]pyrimidin-7(8H)-one], the IC50 came to 175 nM in test [1], 187 nM in test [2], 937 nM in test [3] and 716 nM in the test on H358 cells.

In the case of `Cc1nc(N[C@H](C)c2cccc(C(F)F)c2F)c2cc(OC3CN(C(=O)CF)C3)c(=O)[nH]c2n1` [Example 27, (R)-4-((1-(3-(difluoromethyl)-2-fluorophenyl)ethyl)amino)-6-((1-(2-fluoroacetyl)azetidin-3-yl)oxy)-2-methylpyrido[2,3-R]pyrimidin-7(8H)-one], the IC50 in test [1] was 20 nM; in test [2], 52 nM; in test [3] it was 258 nM; with H358 cells, 202 nM.

On to `Cc1nc(N[C@H](C)c2cccc3c2OCC3(F)F)c2cc([C@]3(O)CC[C@@H](O)CC3)c(=O)[nH]c2n1` (racemic) [Example 25-p1, rac-4-(((R)-1-(3,3-difluoro-2,3-dihydrobenzofuran-7-yl)ethyl)amino)-6-((1s,4S)-1,4-dihydroxycyclohexyl)-2-methylpyrido[2,3-d]pyrimidin-7(8H)-one], for which the IC50 came to 31 nM in test [1], 35 nM in test [2], 101 nM in test [3] and 120 nM in the test on H358 cells.

As for `COCC(=O)N1CCC(c2cc3c(N[C@H](C)c4cccc(C(F)F)c4F)nc(C)nc3[nH]c2=O)CC1` [Example 20, (R)-4-((1-(3-(difluoromethyl)-2-fluorophenyl)ethyl)amino)-6-(1-(2-methoxyacetyl)piperidin-4-yl)-2-methylpyrido[2,3-d]pyrimidin-7(8H)-one], the IC50 was found to be 19 nM in test [1], 60 nM in test [2], 78 nM in test [3] and 118 nM with H358 cells.

For the molecule `Cc1nc(N[C@H](C)c2cccc(C(F)(F)CO)c2F)c2cc(C3=CCOCC3)c(=O)[nH]c2n1` [Example 1, (R)-4-((1-(3-(1,1-difluoro-2-hydroxyethyl)-2-fluorophenyl)ethyl)amino)-6-(3,6-dihydro-2H-pyran-4-yl)-2-methylpyrido[2,3-d]pyrimidin-7(8H)-one], the IC50 in test [1] was 22 nM; in test [2] it was 54 nM; in test [3], 59 nM; with H358 cells it was 34 nM.

As for `Cc1nc(N[C@H](C)c2cccc(C(F)F)c2F)c2cc(C3CCN(C(=O)CC#N)CC3)c(=O)[nH]c2n1` [Example 17, (R)-3-(4-(4-((1-(3-(difluoromethyl)-2-fluorophenyl)ethyl)amino)-2-methyl-7-oxo-7,8-dihydropyrido[2,3-d]pyrimidin-6-yl)piperidin-1-yl)-3-oxopropanenitrile], the IC50 in test [1] came to 28 nM; in test [2], 30 nM; in test [3], 79 nM; with H358 cells, 65 nM.

For the molecule `CC(=O)N1CCC(O)(c2cc3c(N[C@H](C)c4cccc(C(F)F)c4F)nc(C)nc3[nH]c2=O)CC1` [Example 12, (R)-6-(1-acetyl-4-hydroxypiperidin-4-yl)-4-((1-(3-(difluoromethyl)-2-fluorophenyl)ethyl)amino)-2-methylpyrido[2,3-d]pyrimidin-7(8H)-one], the IC50 is 14 nM in test [1], 50 nM in test [2], 48 nM in test [3] and 55 nM in the test with H358 cells.

For `Cc1nc(N[C@H](C)c2cccc(C(F)F)c2F)c2cc(N3CCOCC3)c(=O)[nH]c2n1` [Example 16, (R)-4-((1-(3-(difluoromethyl)-2-fluorophenyl)ethyl)amino)-2-methyl-6-morpholinopyrido[2,3-d]pyrimidin-7(8H)-one], the IC50 is 39 nM in test [1], 136 nM in test [2], 218 nM in test [3] and 97 nM with H358 cells.
